Measurements: US20070248599A1 (priority 2006, published 2007)
Each block holds one molecule with its values, some of them ahead of it.

Tests used:
N2a-APPsw cells [1] = experiment: Cellular Aβ production in N2a-APPsw cells (Aβ40 ELISA of conditioned medium); assay type: cell-based, mouse; details: for Aβ production: recombinant ApoE forms at 10 μg/ml, N2a-APPsw cells (FIG. 5B)
Experimental: Quantification of β-Amyloid40, Neuro-2a cell stably overexpressing APPsw695 was used for detecting of β-Amyloid40. N2a-APPsw cells were grown in Dulbecco's Modified Eagle's medium (DMED) containing 10% fetal bovine serum, 100 U/mL penicillin, and 100 μg/mL streptomycin (GibcoBUR) with 80 μg/mL G418. Cells were cultured in 24-well plates one day before treatment. Transient transfections were done using FeGENE6 (Roche), fresh Optimum medium (Invitrogen) were supplied 5 h after transfection. Same concentration purified Apolipoprotein was added into the fresh medium. Conditioned medium was collected 24 h later. Aβ40 was quantified with sandwich ELISA by using Aβ40 ELISA Kit (Biosource). At least three times assays were done for each condition.
Cellular Aβ40 production. Neuroblastoma N2a-APPsw cells (from Dr. Riqiang Yan, Lerner Research Institute, Cleveland, Ohio) were cultured in 24-well plates in Dulbecco's Modified Eagle's medium (DMED) containing 10% fetal bovine serum, 100 U/mL penicillin, and 100 μg/mL streptomycin (GibcoBUR) with 80 μg/mL G418 one day before use. Transient transfections were done using FeGENE6 (Roche), fresh Optimum medium (Invitrogen) were supplied 5 h after transfection. Apolipoproteins were added in the fresh medium at 10 μg/mL. Conditioned medium was collected 24 h later. Aβ40 was determined in tripcates using Aβ40 ELISA Kit (Biosource). For studying the effect of PTB domain on Aβ production, N2a-APPsw cells were transfected with (0.4 μg/per well for 24 well plate) of PTB-containing vector before subjected to the above procedure.

N2a-APPsw cells [2] = experiment: as above; assay type: cell-based, mouse; details: for Aβ production: each at 5 μg/mL, 24 h, N2a-APPsw cells (FIG. 5B legend)
[3] = test system: N2a-APPsw cells transfected with ApoER2 and β-secretase; experiment: Internalization of cell surface proteins (biotinylation, Western blot); assay type: cell-based, mouse
Experimental: Internalization of cell surface proteins. N2a-APPsw cells were transiently tranfected with ApoER2 and β-secretase with Lipfectamine 2000. […] Cells were then placed on ice, rinsed in cold PBS and incubated in PBS containing 1.5 mg/mL sulfo-NHS-LC-biotin (Pierce) for 20 min at 4° C. Cells were rinsed twice in PBS and lysed in 800 μl PBS containing 0.1% SDS, 1% NP40 and a complete protease inhibitor cocktail. Total protein concentration was determined by immunoblotting from an aliquot of 50 μl cell lysate. Biotinylated proteins were recovered with NeutrAvidin agarose (50 μl; Pierce), rinsed three times, eluted in 20 μl SDS-sample buffer at boiling temperature and used for Western-blot. Quantity of bands was determined by optical scanning instruments specified above. For the determination of internalized proteins, cells were prepared as above, rinsed in PBS and then incubated with cold 1.5 mg/mL cleavable biotin reagent in PBS (EZ-Link Sulfo-NHS-SS biotin, Pierce) for 20 min at 4° C. […] Cells were then lysed in 800 μl PBS containing 0.1% SDS, 1% NP40 and a complete protease inhibitor cocktail. After centrifugation, biotinylated proteins were retrieved by incubation with NeutrAvidin agarose (50 μl; Pierce). Isolated proteins were rinsed in buffer three times and boiled in 20 μl sample buffer for Western blots.

[4] = test system: N2a-APPsw cells transfected with ApoER2 and β-secretase; experiment: as above; assay type: cell-based, mouse; details: Western blot of conditioned medium (FIG. 6D)
[5] = target: T1, human LRP (LDL receptor related protein) (human, UniProt Q07954 20-4544); experiment: co-IP from HEK293 lysate, Western blot
T1 construct: whole, on cells; Expressed in HEK293 cells in place of ApoER2 and assayed in lysate
T1 sequence (Q07954 20-4544): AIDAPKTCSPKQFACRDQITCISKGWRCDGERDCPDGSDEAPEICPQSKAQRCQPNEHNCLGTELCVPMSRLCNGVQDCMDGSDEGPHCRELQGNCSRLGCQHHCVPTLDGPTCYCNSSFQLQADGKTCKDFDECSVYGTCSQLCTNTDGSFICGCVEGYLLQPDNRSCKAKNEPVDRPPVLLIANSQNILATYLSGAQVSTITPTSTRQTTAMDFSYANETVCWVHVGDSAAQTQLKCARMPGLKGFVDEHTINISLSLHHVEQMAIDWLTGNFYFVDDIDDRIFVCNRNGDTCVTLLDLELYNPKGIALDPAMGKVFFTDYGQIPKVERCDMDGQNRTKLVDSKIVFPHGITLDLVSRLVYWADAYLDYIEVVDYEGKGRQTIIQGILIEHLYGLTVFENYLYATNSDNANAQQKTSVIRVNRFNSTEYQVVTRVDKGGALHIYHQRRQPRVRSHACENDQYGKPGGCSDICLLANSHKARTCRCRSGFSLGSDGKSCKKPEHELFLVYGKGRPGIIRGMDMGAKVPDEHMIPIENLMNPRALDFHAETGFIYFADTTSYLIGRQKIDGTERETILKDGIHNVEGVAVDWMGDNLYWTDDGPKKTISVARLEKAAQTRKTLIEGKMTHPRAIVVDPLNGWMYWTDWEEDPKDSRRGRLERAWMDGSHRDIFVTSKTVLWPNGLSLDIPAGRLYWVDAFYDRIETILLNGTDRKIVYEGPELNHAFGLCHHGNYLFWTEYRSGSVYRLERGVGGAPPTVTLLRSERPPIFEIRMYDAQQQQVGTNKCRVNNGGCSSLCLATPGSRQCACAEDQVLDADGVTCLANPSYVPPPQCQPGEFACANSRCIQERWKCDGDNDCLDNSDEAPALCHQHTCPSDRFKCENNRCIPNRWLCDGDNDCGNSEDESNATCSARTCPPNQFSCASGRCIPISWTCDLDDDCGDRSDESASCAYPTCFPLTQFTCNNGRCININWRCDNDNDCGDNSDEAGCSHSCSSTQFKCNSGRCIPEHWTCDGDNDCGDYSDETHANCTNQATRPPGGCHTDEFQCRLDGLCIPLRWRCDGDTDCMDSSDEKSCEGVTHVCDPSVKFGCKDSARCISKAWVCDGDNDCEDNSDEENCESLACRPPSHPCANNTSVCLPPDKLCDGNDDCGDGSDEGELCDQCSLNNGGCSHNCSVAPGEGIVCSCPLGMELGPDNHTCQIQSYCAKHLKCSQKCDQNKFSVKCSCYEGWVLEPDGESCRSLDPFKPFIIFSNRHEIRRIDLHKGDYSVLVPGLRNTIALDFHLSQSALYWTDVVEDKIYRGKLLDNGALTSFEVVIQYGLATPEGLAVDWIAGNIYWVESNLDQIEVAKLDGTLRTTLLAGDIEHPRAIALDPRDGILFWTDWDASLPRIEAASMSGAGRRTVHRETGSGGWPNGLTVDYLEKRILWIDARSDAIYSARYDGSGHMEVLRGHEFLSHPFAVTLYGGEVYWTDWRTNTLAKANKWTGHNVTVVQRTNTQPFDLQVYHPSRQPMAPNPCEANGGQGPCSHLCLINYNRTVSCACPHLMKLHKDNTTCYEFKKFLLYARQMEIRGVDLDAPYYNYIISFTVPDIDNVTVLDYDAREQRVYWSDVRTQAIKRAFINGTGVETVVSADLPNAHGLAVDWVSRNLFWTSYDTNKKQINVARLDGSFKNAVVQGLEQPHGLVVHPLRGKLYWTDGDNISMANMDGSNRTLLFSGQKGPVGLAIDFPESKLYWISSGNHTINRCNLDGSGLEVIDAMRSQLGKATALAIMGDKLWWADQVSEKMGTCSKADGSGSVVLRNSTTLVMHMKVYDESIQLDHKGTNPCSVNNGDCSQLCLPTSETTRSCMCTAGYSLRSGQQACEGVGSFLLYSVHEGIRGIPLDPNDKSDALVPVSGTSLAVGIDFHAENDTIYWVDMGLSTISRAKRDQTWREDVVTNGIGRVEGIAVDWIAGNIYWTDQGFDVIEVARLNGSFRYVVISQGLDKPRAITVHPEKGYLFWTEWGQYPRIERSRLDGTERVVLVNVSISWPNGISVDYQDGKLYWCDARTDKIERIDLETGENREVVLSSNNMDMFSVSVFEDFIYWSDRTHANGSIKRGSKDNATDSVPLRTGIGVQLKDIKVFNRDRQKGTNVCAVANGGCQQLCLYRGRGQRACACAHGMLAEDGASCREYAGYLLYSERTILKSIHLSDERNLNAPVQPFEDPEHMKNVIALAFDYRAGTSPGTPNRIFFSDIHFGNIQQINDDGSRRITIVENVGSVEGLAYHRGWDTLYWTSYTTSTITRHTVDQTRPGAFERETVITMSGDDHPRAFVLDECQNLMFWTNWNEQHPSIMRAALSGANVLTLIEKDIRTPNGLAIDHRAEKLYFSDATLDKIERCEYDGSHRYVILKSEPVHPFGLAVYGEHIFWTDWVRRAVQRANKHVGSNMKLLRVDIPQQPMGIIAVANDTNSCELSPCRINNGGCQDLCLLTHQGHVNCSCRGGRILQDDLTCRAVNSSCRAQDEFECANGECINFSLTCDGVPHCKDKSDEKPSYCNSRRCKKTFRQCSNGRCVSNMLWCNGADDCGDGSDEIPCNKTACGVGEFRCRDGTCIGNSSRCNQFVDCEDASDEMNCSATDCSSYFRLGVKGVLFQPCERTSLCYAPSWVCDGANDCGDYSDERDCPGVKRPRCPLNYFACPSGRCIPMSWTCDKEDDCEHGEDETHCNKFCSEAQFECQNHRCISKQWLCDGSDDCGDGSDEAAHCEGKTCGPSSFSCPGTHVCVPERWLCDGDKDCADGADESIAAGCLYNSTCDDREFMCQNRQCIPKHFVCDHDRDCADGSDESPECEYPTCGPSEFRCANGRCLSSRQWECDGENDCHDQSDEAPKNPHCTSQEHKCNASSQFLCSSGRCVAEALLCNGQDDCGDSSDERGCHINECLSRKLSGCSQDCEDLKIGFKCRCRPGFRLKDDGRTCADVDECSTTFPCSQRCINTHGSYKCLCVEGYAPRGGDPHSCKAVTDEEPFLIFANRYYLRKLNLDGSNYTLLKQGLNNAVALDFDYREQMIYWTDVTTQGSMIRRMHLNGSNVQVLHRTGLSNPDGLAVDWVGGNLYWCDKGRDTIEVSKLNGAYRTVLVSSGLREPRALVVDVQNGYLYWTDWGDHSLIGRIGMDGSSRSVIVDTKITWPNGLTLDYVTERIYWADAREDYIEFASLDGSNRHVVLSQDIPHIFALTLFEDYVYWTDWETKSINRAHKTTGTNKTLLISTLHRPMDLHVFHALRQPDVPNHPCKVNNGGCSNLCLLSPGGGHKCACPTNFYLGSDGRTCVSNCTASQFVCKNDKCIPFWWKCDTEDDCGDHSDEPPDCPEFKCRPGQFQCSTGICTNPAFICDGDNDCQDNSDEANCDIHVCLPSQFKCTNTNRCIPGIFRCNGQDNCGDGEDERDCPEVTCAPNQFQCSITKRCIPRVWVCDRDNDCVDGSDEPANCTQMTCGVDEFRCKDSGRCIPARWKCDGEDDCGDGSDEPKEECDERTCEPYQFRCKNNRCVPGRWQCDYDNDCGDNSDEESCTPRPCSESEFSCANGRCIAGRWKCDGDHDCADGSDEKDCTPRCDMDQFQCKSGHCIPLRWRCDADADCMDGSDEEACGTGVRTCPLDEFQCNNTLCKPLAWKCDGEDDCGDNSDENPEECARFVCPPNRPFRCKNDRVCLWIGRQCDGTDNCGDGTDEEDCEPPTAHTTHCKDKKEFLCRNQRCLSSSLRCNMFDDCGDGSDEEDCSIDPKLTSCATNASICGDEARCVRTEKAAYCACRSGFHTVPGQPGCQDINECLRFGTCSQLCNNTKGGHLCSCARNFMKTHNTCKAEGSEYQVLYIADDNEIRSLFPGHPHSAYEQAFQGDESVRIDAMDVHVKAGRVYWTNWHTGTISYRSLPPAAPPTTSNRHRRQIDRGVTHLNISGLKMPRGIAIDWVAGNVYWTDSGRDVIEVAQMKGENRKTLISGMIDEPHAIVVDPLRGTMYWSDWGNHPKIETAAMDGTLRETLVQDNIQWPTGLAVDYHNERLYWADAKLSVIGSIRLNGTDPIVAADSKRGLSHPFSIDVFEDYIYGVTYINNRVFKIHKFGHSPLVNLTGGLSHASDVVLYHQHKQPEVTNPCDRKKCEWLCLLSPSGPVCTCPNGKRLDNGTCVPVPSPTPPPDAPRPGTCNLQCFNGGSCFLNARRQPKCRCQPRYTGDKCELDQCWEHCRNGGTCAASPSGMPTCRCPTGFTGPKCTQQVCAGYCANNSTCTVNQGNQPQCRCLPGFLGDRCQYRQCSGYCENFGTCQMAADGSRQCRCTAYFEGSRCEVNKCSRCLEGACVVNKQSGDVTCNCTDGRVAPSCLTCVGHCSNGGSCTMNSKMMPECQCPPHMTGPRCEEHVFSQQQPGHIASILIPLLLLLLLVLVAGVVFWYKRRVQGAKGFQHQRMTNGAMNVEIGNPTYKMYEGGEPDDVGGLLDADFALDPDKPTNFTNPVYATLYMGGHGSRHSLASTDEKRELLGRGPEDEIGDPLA
Experimental: KPI is a Kunitz protease inhibitor domain. In ApoER2, the alternative spliced 59-residue insertion is shown in blue. […] Experimental conditions same as in FIG. 7A.
Co-immunoprecipitation and Western Blot Assays. […] 36 h after transfection, cells were harvested and lysed on ice in lysis buffer (PBS, pH 7.4 with 1% NP-40 and 1% Saponin with protease inhibitors cocktail (Roche)). Cell lysates were cleared by centrifugation and immunoprecipitated with indicated antibody for 4 h at 4° C. Immune complexes were isolated using protein G-agarose beads (Sigma) and subjected to SDS-PAGE and Western blotting using specific antibodies.

[6] = 10 μg/mL, internalization 15 min at 37° C. (FIG. 6B)

Molecule: ApoE3: recombinant ApoE isoform, the reference sequence, from Alpha Diagnostic
Aβ production (N2a-APPsw cells [1]): increased Aβ production | Aβ production (N2a-APPsw cells [2]): increased Aβ production

Molecule: ApoE: purified human apolipoprotein E, purchased from Biodesign / Alpha Diagnostic
total amounts of ApoER2, APP and β-secretase in the cell lysates ([3]; 10 μg/mL, 2 h): remained about the same | decrease of remaining cell-surface β-secretase ([3]; 10 μg/mL, 2 h, compared to controls (FIG. 6A)): ~7% | increase of intracellular APP [3, 6]: about 2.5 fold | increase of intracellular ApoER2 [3, 6]: small increases | increase of intracellular β-secretase [3, 6]: small increases | intracellular APP C-terminal fragment C99 ([3]; Western blot, over the control (FIG. 6C)): significantly increased | Aβ production in cells transfected with ApoER2 versus without (N2a-APPsw cells [1]; N2a-APPsw cells (FIG. 5D)): produced more Aβ | Aβ40 increase in cells transfected with ApoER2 versus blank vectors (N2a-APPsw cells [2]; 5 μg/mL, N2a APPsw cells, p<0.05 (FIG. 4)): increase of Aβ40 at a greater extent | Aβ40 levels in medium (N2a-APPsw cells [2]; 5 μg/mL, blank vector transfected N2a APPsw cells vs control (FIG. 4)): increased over that in the control cells | Aβ production (N2a-APPsw cells [2]): increased Aβ production | APP ectodomain generated by ∝-secretase, s∝-APP [4]: reduction

Molecule: ApoE2: recombinant ApoE isoform with cysteine at residue 158, from Alpha Diagnostic
Aβ production (N2a-APPsw cells [1]): increased Aβ production | Aβ production (N2a-APPsw cells [2]): increased Aβ production

binding result [5]: no binding
B1: PTB domain of X11α (residue 457-751) expressed from pcDNA6 (other)
chain: DGIIFAANYLGSTQLLSDKTPSKNVRMMQAQEAVSRIKMAQKLAKSRKKAPEGESQPMTEVDLFISTQRIKVLNADTQETMMDHPLRTISYIADIGNIVVLMARRRMPRSNSQENVEASHPSQDGKRQYKMICHVFESEDAQLIAQSIGQAFSVAYQEFLRANGINPEDLSQKEYSDLLNTQDMYNDDLIHFSKSENCKDVFIEKQKGEILGVVIVESGWGSILPTVIIANMMHGGPAEKSGKLNIGDQIMSINGTSLVGLPLSTCQSIIKGLKNQSRVKLNIVRCPPVTTVLIR
notes: Expressed in cells from pcDNA6; also called separately expressed PTB domain of X11α

binding result [5]: no binding
B2: human X11α (other)
chain: MNHLEGSAEVEVTDEAAGGEVNESVEADLEHPEVEEEQQQPPQQQHYVGRHQRGRALEDLRAQLGQEEEERGECLARSASTESGFHNHTDTAEGDVIAAARDGYDAERAQDPEDESAYAVQYRPEAEEYTEQAEAEHAEATHRRALPNHLHFHSLEHEEAMNAAYSGYVYTHRLFHRGEDEPYSEPYADYGGLQEHVYEEIGDAPELDARDGLRLYEQERDEAAAYRQEALGARLHHYDERSDGESDSPEKEAEFAPYPRMDSYEQEEDIDQIVAEVKQSMSSQSLDKAAEDMPEAEQDLERPPTPAGGRPDSPGLQAPAGQQRAVGPAGGGEAGQRYSKEKRDAISLAIKDIKEAIEEVKTRTIRSPYTPDEPKEPIWVMRQDISPTRDCDDQRPMDGDSPSPGSSSPLGAESSSTSLHPSDPVEASTNKESRKSLASFPTYVEVPGPCDPEDLIDGIIFAANYLGSTQLLSDKTPSKNVRMMQAQEAVSRIKMAQKLAKSRKKAPEGESQPMTEVDLFISTQRIKVLNADTQETMMDHPLRTISYIADIGNIVVLMARRRMPRSNSQENVEASHPSQDGKRQYKMICHVFESEDAQLIAQSIGQAFSVAYQEFLRANGINPEDLSQKEYSDLLNTQDMYNDDLIHFSKSENCKDVFIEKQKGEILGVVIVESGWGSILPTVIIANMMHGGPAEKSGKLNIGDQIMSINGTSLVGLPLSTCQSIIKGLKNQSRVKLNIVRCPPVTTVLIRRPDLRYQLGFSVQNGIICSLMRGGIAERGGVRVGHRIIEINGQSVVATPHEKIVHILSNAVGEIHMKTMPAAMYRLLTAQEQPVYI
notes: Adaptor protein expressed from a cDNA vector in HEK293 cells and assayed in lysate; the vector came from an outside laboratory; also called X11α/β
